In patent US20250387348A1, “NEPHROPROTECTIVE USEFUL AGENT” (WATANABE OYSTER LABORATORY, CO., LTD., priority 2022, published 2025):

How the values were obtained:
[1] = test system: mitochondria of HK-2 cells; experiment: Mitochondrial respiration capacity (oxygen consumption rate, extracellular flux analyzer XFp); assay type: cell-based, human
Method: The action of DHMBA improving mitochondrial respiration capacity under oxidative stress was examined using an extracellular flux analyzer XFp (Agilent Technologies).
The HK-2 cells were seeded into the XFp Cell Culture Miniplate (Agilent Technologies) to be 1.5×10^4 cells/well and cultured for 24 hours. Next, BSO and DHMBA were added in an amount of 200 μL/well to have a final concentration of BSO of 100 μM and a final concentration of DHMBA of 250 μM and 500 μM. After 24 hours of culture, the culture medium was replaced with a running culture medium (XF DMEM Medium, pH 7.4, Agilent Technologies) containing 20 mM GlutaMAX (Gibco), 10 mM Pyruvate (Gibco), and glucose (10 mM), and the cells were cultured for one hour in an incubator at 37° C. without CO2 control. A 24-hour hydrated calibration plate was placed on an extracellular flux analyzer XFp and calibrated. After the calibration was completed, the calibration plate and the cell plate were exchanged, and the oxygen consumption rate (OCR) was measured. The basal respiration rate was measured first, and subsequently, oligomycin (final concentration: 2 μM) was added to inhibit ATP production. Next, FCCP (final concentration: 1 μM) was added, and the maximal respiration rate was measured. Finally, rotenon/antimycin A (final concentration: 0.25 μM) was added, and the respiration rate independent of mitochondria was measured. Each measurement was performed three times for all measurements.

[2] = test system: BIK and ENDOG genes in HK-2 cells; experiment: qPCR expression of cell and mitochondrial damage-related genes; assay type: cell-based, human; conditions: 24 hours
Source text: Under oxidative stress stimulation, ENDOG that resides in a mitochondrion migrates to the nucleus and acts on nuclear DNA fragmentation. In addition, when nuclear DNA is damaged, BIK increases and acts with intramitochondrial factors, inducing apoptosis, a type of cell death (Li L Y, et al., Nature, 412:95-99, 2001; Kutuk O, et al., PLOS One, 12: e0182809, 2017).
Therefore, in the present invention, the effect of DHMBA on cell death markers BIK and ENDOG, which increase under oxidative stress stimulation, was verified.
The HK-2 cells were seeded into a 6-well plate to be 5.0×10^4 cells/well and cultured for 24 hours. Next, BSO and DHMBA were added in an amount of 2 mL/well to have a final concentration of BSO of 100 μM and a final concentration of DHMBA of 250 μM and 500 μM. After 24 hours, total RNA extraction was recovered using a NucleoSpin (registered trademark) RNA kit (MACHEREY-NAGEL). The concentration of purified RNA was quantified by the Nanodrop (Invitrogen). From 1.0 μg of total RNA, cDNA was synthesized according to the protocol of ReverTra ACE (registered trademark) qPCR RT Master Mix with gDNA Remover (TOYOBO). The gene expression levels were measured according to the protocol of THUNDERBIRD (registered trademark) SYBR (registered trademark) qPCR Mix (TOYOBO). The measurement was performed using the CFX Connect™ Real-Time PCR Detection System (BioRad), and analysis was performed by the 2^−(ΔΔCT) method.
A comparison was performed with the gene expression level of the control group as 1. The figure was expressed as a mean value±SD (n=4 for each group). Each expression level was corrected by the expression level of β-actin, which is a housekeeping gene.

[3] = test system: mitochondria of HK-2 cells; experiment: Mitochondrial morphology observation (MitoTracker Green FM / Hoechst 33342); assay type: cell-based, human; conditions: 24 hours
Method: Excessively produced ROS induces mitochondrial fission, causing mitochondrial fragmentation and dysfunction (Zorov D, et al., Cells, 8:175, 2019). In order to observe whether or not DHMBA influences mitochondrial morphological changes under oxidative stress stimulation, double staining of mitochondria and nuclei was performed using MitoTracker (registered trademark) Green FM (Thermo Fisher Scientific), which reacts to mitochondrial membrane potential differences, and Hoechst 33342 (DOJINDO LABORATORIES), which binds to nuclear DNA.
The HK-2 cells were seeded into 35 mm dishes to be 5.0×10^4 cells/dish and cultured for 24 hours. Next, BSO and DHMBA were added in an amount of 2 mL/well to have a final concentration of BSO of 100 μM and a final concentration of DHMBA of 250 μM and 500 μM. After 24 hours, a mixed solution of 0.1 μM MitoTracker (registered trademark) Green FM and 5 μg/mL Hoechst 33342 was added in an amount of 2 mL/dish, and the cells were cultured at 37° C. for 20 minutes and washed with PBS. Afterwards, 1 mL of PBS was added, and fluorescence images were obtained at 100 times using a fluorescence microscope BZ-9000 (Keyence).

[4] = test system: intracellular ROS in HK-2 cells; experiment: Intracellular ROS production level (DCFDA staining); assay type: cell-based, human; conditions: 24 hours
Method: The production level of intracellular ROS was measured to assess changes in intracellular ROS by DHMBA under oxidative stress stimulation.
The HK-2 cells were seeded into a black 96-well plate to be 3.0×10^3 cells/well and cultured for 24 hours. Next, BSO and DHMBA were added in an amount of 100 μL/well to have a final concentration of BSO of 100 μM and a final concentration of DHMBA of 250 μM and 500 μM. After 24 hours, a supernatant was removed, a DCFDA reagent (Sigma) diluted to 25 μM with serum-free DMEM was added in an amount of 100 μL/well, and the cells were cultured at 37° C. for 40 minutes. Furthermore, after the cells were washed with PBS, PBS was added in an amount of 100 μL/well, and fluorescence was measured using a plate reader (Wallac 1420 ARVO Mx plate reader) at an excitation wavelength of 485 nm and a fluorescence wavelength of 535 nm (n=6 for each group) and observed and photographed with a fluorescence microscope BZ-9000 (Keyence).

[5] = test system: intramitochondrial ROS in HK-2 cells; experiment: Intramitochondrial ROS production level (DHR123 staining); assay type: cell-based, human; conditions: 24 hours
Method: In order to verify the effect of DHMBA on the production of intramitochondrial ROS promoted by oxidative stress stimulation, the observation and measurement of fluorescence intensity of intramitochondrial ROS were performed using DHR123.
The HK-2 cells were seeded into a black 24-well plate to be 2.0×10^4 cells/well and cultured for 24 hours. Next, BSO and DHMBA were added in an amount of 500 μL/well to have a final concentration of BSO of 100 μM and a final concentration of DHMBA of 250 μM and 500 μM. After 24 hours, a supernatant was removed, a DHR123 reagent (FUJIFILM Wako Pure Chemical Corporation) diluted to 5 μM with serum-free DMEM was added in an amount of 250 μL/well, and the cells were cultured at 37° C. for 40 minutes.
Furthermore, after the cells were washed with PBS, 500 μL of PBS was added, observation was performed, and photos were taken using a fluorescence microscope BZ-9000 (Keyence). Then, after the cells were peeled from the bottom with a scraper and pipetted sufficiently, an amount of 200 μL/well was moved to a black 96-well plate, and fluorescence was measured using a plate reader (Wallac 1420 ARVO Mx plate reader) at an excitation wavelength of 505 nm and a fluorescence wavelength of 534 nm (n=6 for each group).

[6] = test system: human renal proximal tubular cells HK-2; experiment: LDH cytotoxicity test under BSO oxidative stress; assay type: cell-based; conditions: 48 hours
Method: (§1) Human renal proximal tubular cells (HK-2) were subcultured using Dulbecco's Modified Eagle's Medium (DMEM, NACALAI TESQUE, INC.) containing 10% fetal bovine serum and 1% penicillin-streptmycin in a 5% CO2 incubator at 37° C.
(§2) In order to confirm the cytoprotective action of DHMBA on human renal proximal tubular cells HK-2 against oxidative stress, an oxidative stress inducer buthionine sulfoximine (BSO) was used to assess the toxicity and viability of the cells.
(§3) Specifically, the HK-2 cells were seeded into a 96-well plate to be 3.0×10^3 cells/well and cultured for 24 hours.
(§4) Next, BSO and DHMBA were added in an amount of 150 μL/well to have a final concentration of BSO of 100 μM and a final concentration of DHMBA of 1 μM to 500 μM. […] After the plate was allowed to stand for 30 minutes at room temperature, the absorbance at 490 nm was measured using a plate reader (Wallac 1420 ARVO Mx plate reader, PerkinElmer) to measure the cytotoxicity. In addition, a CCK-8 reagent (DOJINDO LABORATORIES) was added in an amount of 10 μL/well to the plate where the cells had been cultured, and after two hours of culture at 37° C., the absorbance at 450 nm was measured using a plate reader (Wallac 1420 ARVO Mx plate reader) to assess the viability of the cells. The toxicity and viability of the cells were calculated from the absorbance value relative to the control (0 μg/mL) (n=5 to 6 for each group).

[7] = test system: human renal proximal tubular cells HK-2; experiment: CCK-8 cell viability test under BSO oxidative stress; assay type: cell-based; conditions: 48 hours
Method: as §1, §2, §3, §4

[8] = test system: PPARα/PGC1α/NRF1/TFAM pathway genes in HK-2 cells; experiment: qPCR expression of mitochondrial biosynthesis-related genes; assay type: cell-based, human; conditions: co-treatment with 100 μM BSO, DHMBA 250 μM and 500 μM
Method: It has been reported that mitochondrial biosynthesis is regulated through activation of the PPARα/PGC1α/NRF1/TFAM pathway (Uittenbogaard M and Chiaramello A, Current pharmaceutical design, 20:[…], 2014).
The expression levels of genes related to mitochondrial biosynthesis were measured in a similar manner to that described above. A comparison was performed with the control group as 1. The figure was expressed as a mean value±SD (n=3 for each group). Each expression level was corrected by the expression level of β-actin.

[9] = test system: Keap1-Nrf2 pathway; conditions: cited from earlier work
[10] = test system: OPA1, DRP1 and FIS1 genes in HK-2 cells; experiment: qPCR expression of mitochondrial fusion- and fission-related genes; assay type: cell-based, human; conditions: co-treatment with 100 μM BSO, DHMBA 250 μM and 500 μM
Method: The expression levels of genes related to mitochondrial fusion (OPA1) and genes related to fission (DRP1 and FIS1) were measured in a similar manner to that described above. A comparison was performed with the control group as 1. The figure was expressed as a mean value±SD (n=4 for each group). Each expression level was corrected by the expression level of β-actin.

[11] = 100 μM BSO alone (oxidative stress stimulation)
[12] = 100 μM BSO and 500 μM DHMBA, 24 hours, OCR
[13] = co-treatment with 100 μM BSO, DHMBA 250 μM and 500 μM

SMILES: CCCCS(=N)(=O)CCC(N)C(=O)O (centres unmarked) [BSO, buthionine sulfoximine, reference compound]
- damage to mitochondrial functions (OCR) ([1]; 100 μM BSO alone, 24-hour addition): not recognized
- expression level of BIK gene [2, 11]: increased
- expression level of ENDOG gene [2, 11]: increased
- mitochondrial fragmentation (morphology) [3, 11]: mitochondrial fragmentation was induced
- intracellular ROS ([4]; 100 μM BSO alone): increase in intracellular ROS
- ROS accumulation in mitochondria ([5]; 100 μM BSO alone): ROS accumulation in mitochondria was also observed
- cytotoxicity ([6]; 100 μM BSO alone (0 μM DHMBA)): strong cytotoxicity
- cell viability ([7]; 100 μM BSO alone (0 μM DHMBA), CCK-8): low cell viability

SMILES: COc1c(O)cc(CO)cc1O [DHMBA, 3,5-dihydroxy-4-methoxybenzyl alcohol]
- expression level of PGC1α [8]: increased
- expression level of TEAM [8]: increased
- mitochondrial ATP production [1, 12]: increased
- mitochondrial basal respiration [1, 12]: increased
- mitochondrial maximal respiration [1, 12]: increased
- expression level of BIK gene [2, 13]: decreased to the same levels as those of the control group
- expression level of ENDOG gene [2, 13]: decreased to the same levels as those of the control group
- cytotoxicity compared with existing antioxidant substances ([9]; earlier finding, background art): less cytotoxic than existing antioxidant substances
- activation of radical scavenging ability and the Keap1-Nrf2 pathway, expression induction of antioxidant gene clusters (such as HO-1 and NQO1) ([9]; literature (Fuda 2015; Joko 2017)): confirmed
- expression level of FIS1 [10]: reduced
- mitochondrial fragmentation (morphology) [3, 13]: fragmented mitochondria decreased
- production level of intracellular ROS [4, 13]: decreased to the same level as that of the control group
- accumulation of intramitochondrial ROS [5, 13]: inhibited
- DHMBA concentration that inhibited cytotoxicity ([6]; co-treatment with 100 μM BSO, DHMBA 1 μM to 500 μM): ≥ 3.9 µM
- DHMBA concentration that increased cell viability ([7]; co-treatment with 100 μM BSO, CCK-8, DHMBA 1 μM to 500 μM): ≥ 3.9 µM
